Reference: patent publication US20140341813A1, “INDOCYANINE GREEN-CONTAINING PARTICLE AND METHOD OF PRODUCING THE PARTICLE” (CANON KABUSHIKI KAISHA, priority 2013, published 2014)

Key:
[1] = Spectral shift of ICG aqueous solutions before and after heating (J-aggregate formation and suppression); assay type: physicochemical
Method: FIG. 4 and FIG. 5 show the results of wavelength shifts based on additive concentration series. […] The axis of abscissa of each square indicates a wavelength, and values at its left and right ends are 500 nm and 950 nm, respectively, and the axis of ordinate thereof indicates an absorbance and its scale is arbitrary. The additive in this case refers to urea.
A third square from the left end corresponds to a solution to which the additive is added at a concentration one-half as high as that of the second square.
A second square from the left end corresponds to a 1.5 mM ICG aqueous solution, and an upper stage and a lower stage show spectra before and after the heating, respectively. A third square corresponds to an ICG aqueous solution having a concentration one-half as high as that of the second square.

mouse = conditions: intravenous injection; cited from earlier work
Water solubility of urea = assay type: physicochemical; conditions: calculated from water solubility and molecular weight 60.06
rat [2] = conditions: intravenous injection; cited from earlier work
rat [3] = assay: Urea 50% lethal dose LD50, oral
rat [4] = conditions: oral; cited from earlier work

SMILES	J-aggregate formation of ICG in citric acid after heating ([1]; 1.5 mM ICG, citric acid 100 mM or less, free of urea, 60° C. for 30 minutes)	citric acid concentration above which agglomeration precipitation occurs ([1]; 1.5 mM ICG, free of urea, 60° C. for 30 minutes)	LD50 (mouse)	amount of urea that dissolves (molar) (Water solubility of urea)	LD50 (rat [2])	ratio of urea amount in 10 ml of injection at 10 M to LD50 in terms of a body weight of 50 kg (rat [3]; 6.006 g/425 g)	50% lethal dose converted in terms of a body weight of 50 kg (rat [3]; 8.5 g/kg × 50 kg)	50% lethal dose LD50 (rat [4])	J-aggregation of ICG after heating with urea added ([1]; 1.5 mM ICG aqueous solution + 100 mM urea, heating at 60° C. for 30 minutes)	formation of the H-aggregate of ICG (absorption around 700 nm) with urea added ([1]; 1.5 mM ICG, urea added)
O=C(O)CC(O)(CC(=O)O)C(=O)O [citric acid]	a J-aggregate is formed	higher than 12.5 mM								
NC(N)=O [urea]			around 5,000 mg/kg	up to 17.9 M	around 5,000 mg/kg	1.41×10^−2	425 g	8,500 mg/kg	the J-aggregation is suppressed	suppresses the formation of the H-aggregate
